Active and inactive are the calls of the source. No cut-off for these calls is given here. Where a SMILES comes first, the peptide text is derived from it. [ ]: non-standard residue; d: D form. The star is where a group is joined. Phe(4-guanidino) = N=C(N)Nc1ccc(C[C@H](N)C(=O)O)cc1; Phe(4-F) = N[C@@H](Cc1ccc(F)cc1)C(=O)O; X1 = O=C(/C=C/c1ccccc1)*

The results in this text go back to ChEMBL document CHEMBL3714767, “Imidazothiadiazole and imidazopyridazine derivatives as protease activated receptor 4 (PAR4) inhibitors for treating platelet aggregation” (2013).

Test [1] concerns the target T1, Proteinase-activated receptor 4 (Homo sapiens) (UniProt Q96RI0).
T1 sequence (whole entry): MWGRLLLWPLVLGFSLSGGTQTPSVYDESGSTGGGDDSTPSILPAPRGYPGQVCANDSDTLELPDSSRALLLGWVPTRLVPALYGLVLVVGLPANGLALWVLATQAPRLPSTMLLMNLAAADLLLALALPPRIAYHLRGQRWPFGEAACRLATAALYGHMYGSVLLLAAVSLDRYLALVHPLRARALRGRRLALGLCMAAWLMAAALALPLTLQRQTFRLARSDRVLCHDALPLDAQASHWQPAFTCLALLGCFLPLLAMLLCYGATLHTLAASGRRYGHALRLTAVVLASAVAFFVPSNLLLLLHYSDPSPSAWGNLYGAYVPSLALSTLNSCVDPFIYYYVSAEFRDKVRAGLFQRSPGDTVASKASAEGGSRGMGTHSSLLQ
Nature of the test: Antagonist activity against PAR4 in washed human platelets assessed as inhibition of alpha-thrombin-induced platelet aggregation at 30 to 300 nM pre-incubated for 20 mins before alpha-thrombin addition and measured over 100 to 500 secs by optical aggregometry. The class given is functional.

Test [2] addresses T2, Proteinase-activated receptor 1 (Homo sapiens) (UniProt P25116).
T2 sequence (whole entry): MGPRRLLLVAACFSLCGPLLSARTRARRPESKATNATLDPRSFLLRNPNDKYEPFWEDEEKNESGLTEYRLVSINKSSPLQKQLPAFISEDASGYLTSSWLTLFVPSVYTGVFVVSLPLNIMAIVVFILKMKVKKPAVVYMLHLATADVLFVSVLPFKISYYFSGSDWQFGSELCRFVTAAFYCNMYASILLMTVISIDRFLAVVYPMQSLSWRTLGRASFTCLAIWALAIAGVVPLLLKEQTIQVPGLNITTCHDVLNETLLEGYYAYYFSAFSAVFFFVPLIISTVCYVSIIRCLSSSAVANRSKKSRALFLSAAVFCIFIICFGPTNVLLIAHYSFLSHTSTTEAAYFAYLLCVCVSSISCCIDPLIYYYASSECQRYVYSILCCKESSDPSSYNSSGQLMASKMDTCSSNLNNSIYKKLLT
Nature of the test: Antagonist activity against PAR1 in washed human platelets assessed as inhibition of alpha-thrombin-induced platelet aggregation at 30 to 300 nM pre-incubated for 20 mins before alpha-thrombin addition and measured over 100 to 500 secs by optical aggregometry. Type of test: functional.

As to `COc1cc(OCc2cccc(-c3ccc(C#N)nc3)c2)c2cc(-c3cn4nc(OC)sc4n3)oc2c1`, the inhibition result in test [1] was “Active”.

With `CC(C)C[C@H](NC(=O)[C@H](Cc1ccc(NC(=N)N)cc1)NC(=O)[C@H](Cc1ccc(F)cc1)NC(=O)/C=C/c1ccccc1)C(=O)N[C@@H](CCCNC(=N)N)C(=O)N[C@@H](CCCNC(=N)N)C(=O)O` (X1-[Phe(4-F)][Phe(4-guanidino)]LRR-OH), the inhibition entry in test [2] was “Active”.
